Test [1] has as its target T1, recombinant human LTA4 hydrolase (Homo sapiens, UniProt P09960).
T1 construct: made in house; host or cells: Spodoptera frugiperda Sf-9 cells, baculovirus (AcNPV) expression vector
T1 sequence (P09960 1-611): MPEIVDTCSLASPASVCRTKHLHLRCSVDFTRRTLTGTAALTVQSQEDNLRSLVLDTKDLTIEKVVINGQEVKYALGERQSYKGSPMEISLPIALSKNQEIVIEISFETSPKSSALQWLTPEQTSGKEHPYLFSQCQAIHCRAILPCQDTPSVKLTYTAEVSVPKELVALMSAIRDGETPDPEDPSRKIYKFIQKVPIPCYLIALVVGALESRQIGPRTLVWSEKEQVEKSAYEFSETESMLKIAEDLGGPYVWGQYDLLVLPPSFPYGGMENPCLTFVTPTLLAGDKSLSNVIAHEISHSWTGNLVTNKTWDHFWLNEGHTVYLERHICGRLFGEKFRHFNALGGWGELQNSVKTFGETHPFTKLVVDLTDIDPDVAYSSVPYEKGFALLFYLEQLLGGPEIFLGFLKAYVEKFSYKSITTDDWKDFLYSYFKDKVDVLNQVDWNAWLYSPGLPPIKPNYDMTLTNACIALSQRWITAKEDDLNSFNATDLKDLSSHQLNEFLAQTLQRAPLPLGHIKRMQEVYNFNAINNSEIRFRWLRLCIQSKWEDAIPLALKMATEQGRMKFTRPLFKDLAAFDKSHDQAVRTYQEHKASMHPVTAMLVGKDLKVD
The test can be described thus: Recombinant Human LTA4 Hydrolase Assay for LTA4 Hydrolase Inhibitor Activity (LTB4 by enzyme-linked immunoassay). The class given is biochemical. The settings on record: read-out: Recombinant Human LTA4 Hydrolase Assay IC50 LTA4H. How it is done: Compounds of the present invention were tested for LTA4 hydrolase inhibitor activity against recombinant human LTA4 hydrolase (rhLTA4 H). […] Briefly, LTA4 hydrolase encoding DNA was amplified by polymerase chain reaction using a pair of oligonucleotide primers based on the nucleotide sequence from the 5'-end, and the complement of the 3'-end, of the coding region of the LTA4 hydrolase gene, the nucleotide sequence of which gene is known. […] A λgtll human placental cDNA library (Clonetech, Palo Alto, Calif.) provided the nucleic acid template.
One or more predetermined amounts of a compound of the invention were incubated in assay buffer (0.1M potassium phosphate, 5 mg/ml fatty acid free BSA, 10% DMSO, pH 7.4) for 10 minutes at room temperature with 250 ng of recombinant hLT4 H to allow binding, if any, between the enzyme and inhibitor. The stock enzyme solution was 1 mg/ml LTA4 hydrolase, 50 mM Tris, pH 8.0, 150 mM NaCl, 2.5 mM beta-mercaptoethanol, 50% glycerol. […] LTA4 (i.e., substrate) was prepared from the methyl ester of LTA4 (Biomol, Inc., Plymouth Meeting, Pa.) by treating the methyl ester with 30 molar equivalents of LiOH at room temperature for 18 hours. The LTA4 substrate in its free acid form was kept frozen at -80° C. until needed. […] Each reaction was carried out at room temperature for 10 minutes. The reaction was stopped by diluting 25 μl of the reaction mixture with 500 μl of the assay buffer without DMSO. LTB4 was quantified in the diluted sample by a commercially available enzyme-linked immunoassay [Caymen Chemical Co., Ann Arbor, Mich.] using the method recommended in the manufacturer's instructions and compared to the amount of LTB4 produced in a negative control (i.e., essentially identical conditions except without addition of an inhibitor compound). The IC50 was routinely calculated from the data produced.

In test [2] the test system is LTB4 production in mouse blood. The test can be described thus: Murine Ex Vivo LTB4 Inhibition, calcium ionophore stimulated mouse blood after oral gavage. The class given is in vivo. The settings on record: oral gavage, 1 hour. How it is done: Leukotriene A4 hydrolass inhibitor compounds of the present invention were diluted to a predetermined concentration in phosphate buffered saline containing 2% DMSO and 1% Tween 80. The compounds were administered by oral gavage to adult male outbred mice weighing approximately 20-30 gm at a dose of 10 mg/kg body weight. (Compounds given at a dose of 50 mg/kg body weight are designtated in following Table by the symbol, *.) Sixty (60) minutes after administration of an LTA4 inhibitor compound of the invention, blood was collected (into heparin-containing tubes) from the retroorbital sinus. […] The mixture was incubated for 10 minutes at 37° C. in a humidified incubator. The reaction was terminated by centrifugation (833 g, 10 minutes at 4° C.). Supernatants were analyzed for LTB4 and thromboxane by commercially available enzyme-linked immunoassays [Caymen Chemical Co., Ann Arbor, Mich.] in accordance with the manufacturer's instructions. The percent inhibition was determined by comparison to animals treated identically except that the solution admininstered by oral gavage was devoid of inhibitor compound.

The test system of test [3] is LTB4 production in human blood. The test can be described thus: Inhibition of Calcium Ionophore-Induced LTB4 Production in Human Blood (HWB). The class given is cell-based. The note with it: Homo sapiens, read-out: Inhibition of Calcium Ionophore-Induced LTB4 Production in Human Blood IC50 HWB.
In a further test the test system is LTA4 hydrolase. The note with it: cited from earlier work.
Setting [4] is: human whole blood, A23187 20 mcg/ml.

Consider 14 compounds from US5585492A, “LTA4 Hydrolase inhibitors” (priority 1994, dated 1996).

Each structure is given as a SMILES string. Like-named read-outs stand apart in the source and are kept apart here.

By IC50 is commonly meant the midpoint of a concentration-inhibition curve. As to `COC(=O)CC1CCN(CCOc2ccc(Cc3ccccc3)cc2)C1` (centres unmarked) [Example 275], the values for the IC50 in test [1] and in test [3] (setting [4]) were 390 nM and 146 nM, respectively. Also, the “Murine Ex Vivo LTB4 Inhibition % I LTB4 at 1 hour after administration of 10 mg/kg” value in test [2] was 75%.

Turning to `CC(=O)N1CCN(CCOc2ccc(Cc3ccccc3)cc2)CC1` [Example 277], the IC50 in test [1] came to 520 nM; in test [3] (setting [4]), 546 nM. Further, in test [2], the “Murine Ex Vivo LTB4 Inhibition % I LTB4 at 1 hour after administration of 10 mg/kg” value is listed as 42%.

Turning to `COC(=O)C1CC2CCC(C1)N2CCOc1ccc(Cc2ccccc2)cc1` (centres unmarked) [Example 278], the IC50 in test [1] is 22 nM; in test [3] it was 247 nM. For the same compound, the “Murine Ex Vivo LTB4 Inhibition % I LTB4 at 1 hour after administration of 10 mg/kg” value in test [2] was found to be 95%.

Turning to `CCOC(=O)CNCCCCOc1ccc(Cc2ccccc2)cc1` [Example 320], the IC50 in test [1] amounted to 14 nM; in test [3] (setting [4]), 354 nM. Also, in test [2], the “Murine Ex Vivo LTB4 Inhibition % I LTB4 at 1 hour after administration of 10 mg/kg” value came to 85%.

Take `CCOC(=O)CNCCCCCOc1ccc(Cc2ccccc2)cc1` [Example 321]: the IC50 in test [1] is 250 nM; in test [3] (setting [4]) it was 421 nM. Besides, the “Murine Ex Vivo LTB4 Inhibition % I LTB4 at 1 hour after administration of 10 mg/kg” value in test [2] stood at 87%.

With `CN(CCCOc1ccc(Cc2ccc(F)cc2)cc1)CCC(=O)O` [Example 336], the IC50 in test [1] was found to be 31 nM; in test [3] (setting [4]), 187 nM. The “Murine Ex Vivo LTB4 Inhibition % I LTB4 at 1 hour after administration of 10 mg/kg” value in test [2] turned out to be 99%.

Regarding `c1ccc(Cc2ccc(OCCn3cccc4ncnc3-4)cc2)cc1` [Example 338A], the IC50 in test [1] stood at 140 nM; in test [3] it was 690 nM. In addition, in test [2], the “Murine Ex Vivo LTB4 Inhibition % I LTB4 at 1 hour after administration of 10 mg/kg” value is recorded as 22%.

For the compound `c1ccc(Cc2ccc(OCCn3cnc4ncccc43)cc2)cc1` [Example 338B], the IC50 in test [1] came to 8 nM; in test [3] (setting [4]), 330 nM. Also, the “Murine Ex Vivo LTB4 Inhibition % I LTB4 at 1 hour after administration of 50 mg/kg (*)” value in test [2] (50 mg/kg (*)) is reported as 92%.

Turning to `Cn1c(=O)c2c(ncn2CCOc2ccc(Cc3ccccc3)cc2)n(C)c1=O` [Example 353], the IC50 in test [1] stood at 73 nM; in test [3] (setting [4]), 260 nM. Moreover, the “Murine Ex Vivo LTB4 Inhibition % I LTB4 at 1 hour after administration of 10 mg/kg” value in test [2] is reported as 0%.

Turning to `Nc1ccc2c(c1)ncn2CCOc1ccc(Cc2ccccc2)cc1` [Example 362A], the results for the IC50 in test [1] and in test [3] (setting [4]) were 5070 nM and 3350 nM, respectively. In addition, the “Murine Ex Vivo LTB4 Inhibition % I LTB4 at 1 hour after administration of 10 mg/kg” value in test [2] amounted to 28%.

As for `CNC(=O)C1CCN(CCOc2ccc(Cc3ccccc3)cc2)CC1` [Example 420], the half-maximal inhibitory concentration (IC50) in test [1] amounted to 57 nM; in test [3] (setting [4]), 133 nM. For the same compound, in test [2], the “Murine Ex Vivo LTB4 Inhibition % I LTB4 at 1 hour after administration of 10 mg/kg” value is 93%.

For `NC(=O)N1CCN(CCOc2ccc(Cc3ccccc3)cc2)CC1` [Example 459], the IC50 in test [1] is 1110 nM; in test [3] (setting [4]) it was 2400 nM. Besides, the “Murine Ex Vivo LTB4 Inhibition % I LTB4 at 1 hour after administration of 10 mg/kg” value in test [2] was determined as 44%.

`CC(C)C[C@H](NC(=O)[C@@H](O)[C@H](N)Cc1ccccc1)C(=O)O` [bestatin]: the “LTA4 hydrolase inhibitory activity (in words)” value with LTA4 hydrolase was “exhibit LTA4 hydrolase inhibitory activity”.

With `C[C@H](CS)C(=O)N1CCC[C@H]1C(=O)O` [captopril], in the test on LTA4 hydrolase, the “LTA4 hydrolase inhibitory activity (in words)” value is recorded as “exhibit LTA4 hydrolase inhibitory activity”.
